Test results as given in US20240024403A1, “Compositions and Methods for Managing Weight” (Unigen, Inc., priority 2012, published 2024).

Assay: High fat diet induced obesity (DIO) mouse model
Format: in vivo, C57CL/6J mice
Set-up: Epididymal Fat weight / Retroperitoneal Fat weight / Total Fat (sum of the three fat deposits) / Retroperitoneal Fat / Total Fat / Epididymal Fat, absolute weight / Retroperitoneal Fat, absolute weight: unit not given here
Settings: DIO mice; for Hepatocellular ballooning (0-2) / Lobular Inflammation (0-3) / NSAH (sum) / Steatosis (0-3): liver pathology score
Procedure: C57CL/6J mice aged 4-6 weeks (Korea Research Institute of Bioscience & Biotechnology, Ohchang, Korea) were housed in Polycarbonate cages (five mice per cage) in a room with a 12 hr:12 hr light-dark cycle and an ambient temperature of 24° C. All the mice were fed a commercial chow diet for 1 week after arrival in the animal facility. Mice were then divided into normal and obesity groups and fed with normal diet (ND) and high fat diets (HFD) respectively. The HFD group was divided into multiple treatment groups: a high fat diet vehicle group (HFD), an orlistat (purchased as OTC drug Alli®) positive control treatment group (ORI, 40 mg/kg of animal weight, 2 times/day) and optionally a sibutramine positive control treatment group (10 mg/kg, 1 time/day). The HFD contained 340 g of fat/kg of HFD (310 g lard plus 30 g soybean oil; Harlan Laboratories, USA). The HFD was formulated to provide 60% of the total energy generated by the diet from fat by replacing carbohydrate energy with lard and soybean oil, whereas the normal diet (ND) group was fed a diet providing only 18% of the total diet energy from fat(Harlan Laboratories, USA).
Body weight was measured once each week and feed intake was measured twice per week. At the end of the experimental period, following a 12 hr. fasting period, the animals were anesthetized with ether, and blood was drawn from the abdominal vein. Liver and kidney and adipose tissues (epididymal, retroperitoneal, perirenal adipose tissues) were removed from each animal, rinsed with physiological saline, and weighed. Serum concentrations of glucose, total cholesterol, triglycerides, and LDL-cholesterol were determined using automatic analyzer (INTEGRA 400, Roche, Germany). Statistical significance of test results was measured using the Student's t-test.

[1] = G1-G4 1000 mg/kg oral gavage two times per day
[2] = G1-G4 1000 mg/kg oral gavage two times per day, in g (unit assumed)
[3] = G1 = 800 mg/kg orally twice a day
[4] = G1 = 1,100 mg/kg orally twice a day
[5] = G1 = 1,200 mg/kg orally twice a day
[6] = Mean score, G1 1,300 mg/kg twice a day
[7] = Mean, Composition 11 (G1) 1,300 mg/kg twice a day, oral
[8] = Mean, G1 1,300 mg/kg twice a day
[9] = SIB 10 mg/kg, ORI 40 mg/kg, Mutamba extract 32 (G1) 1000 mg/kg, mean
[10] = SIB 10 mg/kg, ORI 40 mg/kg, Mutamba extract 33-2 G1 1000 mg/kg, mean
[11] = combination (1:1) 2000 mg/kg twice a day, group mean
[12] = combination (5:1) 1200 mg/kg twice a day by gavage, group mean
[13] = combination (5:1) 1200 mg/kg twice a day, biochemistry parameters, Table 85, first print
[14] = combination (5:1) 1200 mg/kg twice a day, biochemistry parameters, Table 85, second print
[15] = combination (10:1) 1100 mg/kg twice a day, biochemistry parameter
[16] = combination (10:1) 1100 mg/kg twice a day, group mean
[17] = plasma, Mean, G1 1,300 mg/kg twice a day

CCCCCCCCCCC[C@@H](C[C@@H]1OC(=O)[C@H]1CCCCCC)OC(=O)[C@H](CC(C)C)NC=O [ORI, orlistat]
Food Intake [1]: 2.675 g/day | Weight Gain [1]: 0.015 g/day | Absolute Organ Weight, Epididymal Fat [2]: 1.998 | Absolute Organ Weight, Liver [2]: 1.184 | ALP [3]: 177.35 U/L | ALT [3]: 23.03 U/L | AST [3]: 51.40 U/L | Absolute Organ Weight: Epididymal fat [3]: 2.03 g | Absolute Organ Weight: Liver [3]: 1.19 g | Absolute Organ Weight: PeriRenal fat [3]: 0.29 g | Absolute Organ Weight: Retroperitoneal fat [3]: 0.5 g | Body Weight Gain [3]: -0.004 g/day | Food Intake [3]: 3.147 g/day | LDL-C [3]: 4.28 mg/dL | T-chol [3]: 155.83 mg/dL | TG [3]: 88.33 mg/dL | TP [3]: 5.08 g/dL | ALT [4]: 23.03 U/L | AST [4]: 51.40 U/L | Absolute Organ Weight: Epididymal Fat [4]: 2.03 g | Absolute Organ Weight: Liver [4]: 1.19 g | Absolute Organ Weight: PeriRenal Fat [4]: 0.29 g | Absolute Organ Weight: Retroperitoneal Fat [4]: 0.5 g | Body Weight Gain [4]: -0.004 g/day | Food Intake [4]: 3.147 g/day | LDL-C [4]: 4.28 mg/dL | T-chol [4]: 155.83 mg/dL | TG [4]: 88.33 mg/dL | TP [4]: 5.08 g/dL | ALT [5]: 23.03 U/L | AST [5]: 51.40 U/L | Absolute Organ Weight: Epididymal Fat [5]: 2.03 g | Absolute Organ Weight: Liver [5]: 1.19 g | Absolute Organ Weight: PeriRenal Fat [5]: 0.29 g | Absolute Organ Weight: Retroperitoneal Fat [5]: 0.5 g | Food Intake [5]: 3.147 g/day | LDL-C [5]: 4.28 mg/dL | T-chol [5]: 155.83 mg/dL | TG [5]: 88.33 mg/dL | TP [5]: 5.08 g/dL | Weight Gain [5]: -0.004 g/day | Liver pathology: Hepatocellular ballooning (0-2) [6]: 0.33 | Liver pathology: Lobular Inflammation (0-3) [6]: 1.50 | Liver pathology: Steatosis (0-3) [6]: 0.33 | Body Weight Gain [7]: -0.004 g/day | Food Intake [7]: 3.147 g/day | ALP [8]: 177.35 U/L | ALT [8]: 23.03 U/L | AST [8]: 51.40 U/L | Absolute Organ Weight: Epididymal Fat [8]: 2.03 g | Absolute Organ Weight: Liver [8]: 1.19 g | Absolute Organ Weight: PeriRenal Fat [8]: 0.29 g | Absolute Organ Weight: Retroperitoneal Fat [8]: 0.5 g | HDL-C [8]: 75.57 mg/dL | LDL-C [8]: 4.28 mg/dL | TP [8]: 5.08 g/dL | FER (Food efficiency ratio) (Mean, body weight gain (g/day)/food intake (g/day), G1 1,300 mg/kg twice a day): −0.001 | Liver pathology: NSAH (sum) (Mean, sum of scores, G1 1,300 mg/kg twice a day): 2.17 | Absolute organ weight: Total Fat (Mean, sum of the three fat pads, G1 1,300 mg/kg twice a day): 2.82 g | FER (Food efficiency ratio) (ORI group, mean, Table 136): 0.000 | Food Intake (ORI group, mean, Table 136): 3.195 g/day | Weight Gain (ORI group, mean, Table 136): 0.000 g/day | ALT (ORI group, mean, Table 137): 21.83 U/L | AST (ORI group, mean, Table 137): 65.65 U/L | Glu (ORI group, mean, Table 137): 194.00 mg/dL | HDL-C (ORI group, mean, Table 137): 62.42 mg/dL | LDL-C (ORI group, mean, Table 137): 4.03 mg/dL | T-chol (ORI group, mean, Table 137): 137.33 mg/dL | TG (ORI group, mean, Table 137): 27.83 mg/dL | Epididymal Fat, absolute weight (ORI group, mean, Table 138): 2.08 | Liver, absolute organ weight (ORI group, mean, Table 138): 0.99 g | Perirenal Fat, absolute weight (ORI group, mean, Table 138): 0.28 | Retroperitoneal Fat, absolute weight (ORI group, mean, Table 138): 0.57 | Total Fat (sum of the three fat pads) (ORI group, mean, Table 138): 2.94 | Average Body Weight Gain [9]: 0.038 g/day | Average Food Intake [9]: 2.826 g/day | Body Weight Gain [10]: 0.093 g/day | Food Intake [10]: 2.769 g/day | FER (Food efficiency ratio) (combination (1:1) 2000 mg/kg twice a day, FER = body weight gain/food intake): 0.000 | Food Intake [11]: 3.961 g/day | Weight Gain [11]: -0.002 g/day | FER (Food efficiency ratio) (combination (5:1) 1200 mg/kg twice a day by gavage, FER = body weight gain/food intake): 0.000 | Food Intake [12]: 3.961 g/day | Weight Gain [12]: -0.002 g/day | Glu [13]: 225.50 mg/dL | LDL-C [13]: 3.30 mg/dL | T-chol [13]: 134.00 mg/dL | TG [13]: 62.50 mg/dL | Glu [14]: 225.50 mg/dL | LDL-C [14]: 3.30 mg/dL | T-chol [14]: 134.00 mg/dL | TG [14]: 62.50 mg/dL | FER (Food efficiency ratio) (combination (10:1) 1100 mg/kg twice a day, FER = body weight gain/food intake): 0.000 | Glu [15]: 225.50 mg/dL | T-chol [15]: 134.00 mg/dL | TG [15]: 62.50 mg/dL | Food Intake [16]: 3.961 g/day | Weight Gain [16]: -0.002 g/day | Hepatocellular ballooning (0-2) (ORI group, mean, Table 139): 0.67 | Lobular Inflammation (0-3) (ORI group, mean, Table 139): 1.33 | NSAH (sum) (ORI group, mean, Table 139): 2.67 | Steatosis (0-3) (ORI group, mean, Table 139): 0.67 | Hepatocellular ballooning (0-2) (mean, Table 133): 0.33 | Lobular Inflammation (0-3) (mean, Table 133): 1.50 | NSAH (sum) (mean, Table 133): 2.17 | Steatosis (0-3) (mean, Table 133): 0.33 | Glu [17]: 269.17 mg/dL | T-chol [17]: 156 mg/dL | TG [17]: 88.3 mg/dL | Absolute Organ Weight, Total Fat (sum of the three fat pads (epididymal, retroperitoneal, perirenal), in g (unit assumed)): 2.952 | Total Fat (sum of the three fat pads, G1 = 800 mg/kg orally twice a day): 2.82 | Total Fat (sum of the three fat pads, G1 = 1,100 mg/kg orally twice a day): 2.82 | Total Fat (sum of the three fat pads, G1 = 1,200 mg/kg orally twice a day): 2.82 | Total Weight (week 0, G1 = 800 mg/kg orally twice a day, in g (unit assumed)): 40.22 | Total Weight (week 0, G1 = 1,100 mg/kg orally twice a day, in g (unit assumed)): 40.22 | Total Body Weight (week 0, G1 = 1,200 mg/kg orally twice a day, in g (unit assumed)): 40.22 | Total Weight (week 0, ORI group, mean, Table 134, in g (unit assumed)): 38.61 | Total Body Weight (week 0, ORI group, mean, Table 145, in g (unit assumed)): 40.22 | Weight Gain (week 1, G1 = 800 mg/kg orally twice a day): −2.24 | Total Weight (week 1, G1 = 800 mg/kg orally twice a day, in g (unit assumed)): 37.98 | Weight Gain (week 1, G1 = 1,100 mg/kg orally twice a day): −2.24 | Total Weight (week 1, G1 = 1,100 mg/kg orally twice a day, in g (unit assumed)): 37.98 | Weight Gain (week 1, G1 = 1,200 mg/kg orally twice a day): −2.24 | Total Body Weight (week 1, G1 = 1,200 mg/kg orally twice a day, in g (unit assumed)): 37.98 | Total Weight (week 1, ORI group, mean, Table 134, in g (unit assumed)): 33.17 | Weight Gain (week 1, ORI group, mean, Table 135): −5.43 | Total Body Weight (week 1, ORI group, mean, Table 145, in g (unit assumed)): 37.98 | Weight Gain (week 1, ORI group, mean, Table 146): −2.24 | Weight Gain (week 2, G1 = 800 mg/kg orally twice a day): −6.14
